Measured values taken from US20230136600A1, “Method and device for screening antigen epitope polypeptide” (priority 2020, published 2023).

Columns and labels:
[1] = tested on: novel coronavirus (live coronavirus), vero cells; test: In-vitro live virus neutralization experiment with serum of immunized mice (CPE method); assay type: in vivo, SARS-CoV-2; settings: Embodiment I: single peptide 100 μg + MF59 at Day 0, 14, 28, Balb/c mice, serum Day 35
Balb/c mice = test: Polypeptide chip-based vaccine immunogenicity scoring system; assay type: in vivo; set-up: key to A2: whether the 95 percentile of the last sampling is increased compared with the end point: Y = rise; N = no rise
[2] = Embodiment III, polypeptide-KLH
[3] = Embodiment III, polypeptide-KLH, Mix1-10
[4] = Embodiment III, polypeptide-KLH, total score = 5
[5] = Embodiment III, polypeptide-KLH, value of the whole mix
[6] = adjuvant AddaVax, 7 peptides co-immunized in mice
[7] = adjuvant Adju-Phos, 7 peptides co-immunized in mice
[8] = adjuvant Alhydrogel, 7 peptides co-immunized in mice
[9] = adjuvant Imjet Alumn, 7 peptides co-immunized in mice
[10] = adjuvant MA103A, 7 peptides co-immunized in mice
[11] = adjuvant MA103B, 7 peptides co-immunized in mice

Question: With “MEVTPSGTWLTY (SARS-CoV-2) [SEQ ID NO:22]” as the sequence, how does the “Neutralizing antibody positive rate (%)” value [1] read?
Answer: 20%

Question: What about the “B1: D 0-D 14 95 percentile rise in the number of mice” value (Balb/c mice; [2]) of the same sequence?
Answer: 3

Question: And the “B2: D 0-D 21 95 percentile rise in the number of mice” value (Balb/c mice; [2])?
Answer: 3

Question: What about the “B3: D 14-D 21 95 percentile rise in the number of mice” value (Balb/c mice; [2]) of the same sequence?
Answer: 3

Question: What about the “B4: D 21-D 28 95 percentile rise in the number of mice” value (Balb/c mice; [2]) of the same sequence?
Answer: 0

Question: And the “A1: difference between a highest median and a D 0 median (95 percentile)” value (Balb/c mice; [3])?
Answer: 0.07

Question: And the “A2: whether the 95 percentile of the last sampling is increased compared with the end point” value (Balb/c mice; [3])?
Answer: N

Question: And the Total single peptide (Balb/c mice; Embodiment III, polypeptide-KLH, A*3 + B*2 + C*1)?
Answer: 10.7

Question: And the “A: 95 percentile grouping number score” value (Balb/c mice; [4])?
Answer: 2

Question: And the “B: Mouse performance score” value (Balb/c mice; [4])?
Answer: 2.1

Question: What about the “C1: #A timing-sequence response peptide fragment set” value (Balb/c mice; [5]) of the same sequence?
Answer: 352

Question: What about the “C2: #B vaccine specificity peptide fragment set” value (Balb/c mice; [5]) of the same sequence?
Answer: 541

Question: What about the “C3: Intersection of A and B” value (Balb/c mice; [5]) of the same sequence?
Answer: 1

Question: And the “C4: Percentage of the intersection in set B” value (Balb/c mice; [5])?
Answer: 0.185

Question: What about the “C: Timing-sequence response and specificity score” value (Balb/c mice; [5]) of the same sequence?
Answer: 0.5

Question: And the “1) 95 percentile grouping number A” value (Balb/c mice; [6])?
Answer: 4

Question: What about the “1) 95 percentile grouping number A1” value (Balb/c mice; [6]) of the same sequence?
Answer: 0.05

Question: What about the “2) Mouse performance B” value (Balb/c mice; [6]) of the same sequence?
Answer: 2.9

Question: What about the “2) Mouse performance B1” value (Balb/c mice; [6]) of the same sequence?
Answer: 3

Question: What about the “2) Mouse performance B2” value (Balb/c mice; [6]) of the same sequence?
Answer: 4

Question: And the “2) Mouse performance B3” value (Balb/c mice; [6])?
Answer: 3

Question: And the “3) Timing-sequence response and specificity C” value (Balb/c mice; [6])?
Answer: 0

Question: What about the “3) Timing-sequence response and specificity C1” value (Balb/c mice; [6]) of the same sequence?
Answer: 237

Question: What about the “3) Timing-sequence response and specificity C2” value (Balb/c mice; [6]) of the same sequence?
Answer: 1244

Question: And the “3) Timing-sequence response and specificity C3” value (Balb/c mice; [6])?
Answer: 0

Question: And the “3) Timing-sequence response and specificity C4” value (Balb/c mice; [6])?
Answer: 0.000

Question: What about the Total single peptide (Balb/c mice; [6]) of the same sequence?
Answer: 17.8

Question: And the “1) 95 percentile grouping number A” value (Balb/c mice; [7])?
Answer: 5

Question: And the “1) 95 percentile grouping number A1” value (Balb/c mice; [7])?
Answer: 0.075

Question: What about the “2) Mouse performance B” value (Balb/c mice; [7]) of the same sequence?
Answer: 2.1

Question: And the “2) Mouse performance B1” value (Balb/c mice; [7])?
Answer: 3

Question: What about the “2) Mouse performance B2” value (Balb/c mice; [7]) of the same sequence?
Answer: 4

Question: What about the “2) Mouse performance B3” value (Balb/c mice; [7]) of the same sequence?
Answer: 1

Question: What about the “3) Timing-sequence response and specificity C” value (Balb/c mice; [7]) of the same sequence?
Answer: 0

Question: What about the “3) Timing-sequence response and specificity C1” value (Balb/c mice; [7]) of the same sequence?
Answer: 203

Question: And the “3) Timing-sequence response and specificity C2” value (Balb/c mice; [7])?
Answer: 1244

Question: What about the “3) Timing-sequence response and specificity C3” value (Balb/c mice; [7]) of the same sequence?
Answer: 0

Question: And the “3) Timing-sequence response and specificity C4” value (Balb/c mice; [7])?
Answer: 0.000

Question: What about the Total single peptide (Balb/c mice; [7]) of the same sequence?
Answer: 19.2

Question: What about the “1) 95 percentile grouping number A” value (Balb/c mice; [8]) of the same sequence?
Answer: 2

Question: And the “1) 95 percentile grouping number A1” value (Balb/c mice; [8])?
Answer: 0.03

Question: What about the “2) Mouse performance B” value (Balb/c mice; [8]) of the same sequence?
Answer: 1.7

Question: And the “2) Mouse performance B1” value (Balb/c mice; [8])?
Answer: 3

Question: And the “2) Mouse performance B2” value (Balb/c mice; [8])?
Answer: 2

Question: And the “2) Mouse performance B3” value (Balb/c mice; [8])?
Answer: 1

Question: What about the “3) Timing-sequence response and specificity C” value (Balb/c mice; [8]) of the same sequence?
Answer: 1

Question: What about the “3) Timing-sequence response and specificity C1” value (Balb/c mice; [8]) of the same sequence?
Answer: 123

Question: What about the “3) Timing-sequence response and specificity C2” value (Balb/c mice; [8]) of the same sequence?
Answer: 1244

Question: And the “3) Timing-sequence response and specificity C3” value (Balb/c mice; [8])?
Answer: 2

Question: What about the “3) Timing-sequence response and specificity C4” value (Balb/c mice; [8]) of the same sequence?
Answer: 0.161

Question: And the Total single peptide (Balb/c mice; [8])?
Answer: 9.9

Question: What about the “1) 95 percentile grouping number A” value (Balb/c mice; [9]) of the same sequence?
Answer: 5

Question: What about the “1) 95 percentile grouping number A1” value (Balb/c mice; [9]) of the same sequence?
Answer: 0.145

Question: And the “2) Mouse performance B” value (Balb/c mice; [9])?
Answer: 2.3

Question: And the “2) Mouse performance B1” value (Balb/c mice; [9])?
Answer: 5

Question: What about the “2) Mouse performance B2” value (Balb/c mice; [9]) of the same sequence?
Answer: 4

Question: What about the “2) Mouse performance B3” value (Balb/c mice; [9]) of the same sequence?
Answer: 0

Question: What about the “3) Timing-sequence response and specificity C” value (Balb/c mice; [9]) of the same sequence?
Answer: 1

Question: What about the “3) Timing-sequence response and specificity C1” value (Balb/c mice; [9]) of the same sequence?
Answer: 100

Question: What about the “3) Timing-sequence response and specificity C2” value (Balb/c mice; [9]) of the same sequence?
Answer: 1244

Question: What about the “3) Timing-sequence response and specificity C3” value (Balb/c mice; [9]) of the same sequence?
Answer: 3

Question: What about the “3) Timing-sequence response and specificity C4” value (Balb/c mice; [9]) of the same sequence?
Answer: 0.241

Question: And the Total single peptide (Balb/c mice; [9])?
Answer: 20.1

Question: What about the “1) 95 percentile grouping number A” value (Balb/c mice; [10]) of the same sequence?
Answer: 5

Question: And the “1) 95 percentile grouping number A1” value (Balb/c mice; [10])?
Answer: 0.11

Question: What about the “2) Mouse performance B” value (Balb/c mice; [10]) of the same sequence?
Answer: 2.5

Question: And the “2) Mouse performance B1” value (Balb/c mice; [10])?
Answer: 5

Question: And the “2) Mouse performance B2” value (Balb/c mice; [10])?
Answer: 5

Question: And the “2) Mouse performance B3” value (Balb/c mice; [10])?
Answer: 0

Question: And the “3) Timing-sequence response and specificity C” value (Balb/c mice; [10])?
Answer: 1

Question: And the “3) Timing-sequence response and specificity C1” value (Balb/c mice; [10])?
Answer: 260

Question: And the “3) Timing-sequence response and specificity C2” value (Balb/c mice; [10])?
Answer: 1244

Question: What about the “3) Timing-sequence response and specificity C3” value (Balb/c mice; [10]) of the same sequence?
Answer: 3

Question: And the “3) Timing-sequence response and specificity C4” value (Balb/c mice; [10])?
Answer: 0.241

Question: And the Total single peptide (Balb/c mice; [10])?
Answer: 20.5

Question: What about the “1) 95 percentile grouping number A” value (Balb/c mice; [11]) of the same sequence?
Answer: 4.5

Question: What about the “1) 95 percentile grouping number A1” value (Balb/c mice; [11]) of the same sequence?
Answer: 0.07

Question: What about the “2) Mouse performance B” value (Balb/c mice; [11]) of the same sequence?
Answer: 3

Question: What about the “2) Mouse performance B1” value (Balb/c mice; [11]) of the same sequence?
Answer: 4

Question: And the “2) Mouse performance B2” value (Balb/c mice; [11])?
Answer: 5

Question: What about the “2) Mouse performance B3” value (Balb/c mice; [11]) of the same sequence?
Answer: 2

Question: What about the “3) Timing-sequence response and specificity C” value (Balb/c mice; [11]) of the same sequence?
Answer: 0

Question: What about the “3) Timing-sequence response and specificity C1” value (Balb/c mice; [11]) of the same sequence?
Answer: 153

Question: And the “3) Timing-sequence response and specificity C2” value (Balb/c mice; [11])?
Answer: 1244

Question: And the “3) Timing-sequence response and specificity C3” value (Balb/c mice; [11])?
Answer: 0

Question: And the “3) Timing-sequence response and specificity C4” value (Balb/c mice; [11])?
Answer: 0.000

Question: What about the Total single peptide (Balb/c mice; [11]) of the same sequence?
Answer: 19.5
